Assay results: US7282522B2, “Hydroxamic acid derivatives and the method for preparing thereof” (Amorepacific Corporation, priority 2003, dated 2007)

Columns and labels:
RARα = target: T1, RARα (Homo sapiens, UniProt P10276); experiment: RARE-luciferase reporter assay in transfected CV-1 cells (affinity to retinoic acid receptor), RARα; type: cell-based; settings: treated 24 hours at final concentration 10^−4M, control group 1000
T1 construct: expressed in transfected cells; host or cells: CV-1 cells (ATCC)
T1 sequence (P10276 1-462): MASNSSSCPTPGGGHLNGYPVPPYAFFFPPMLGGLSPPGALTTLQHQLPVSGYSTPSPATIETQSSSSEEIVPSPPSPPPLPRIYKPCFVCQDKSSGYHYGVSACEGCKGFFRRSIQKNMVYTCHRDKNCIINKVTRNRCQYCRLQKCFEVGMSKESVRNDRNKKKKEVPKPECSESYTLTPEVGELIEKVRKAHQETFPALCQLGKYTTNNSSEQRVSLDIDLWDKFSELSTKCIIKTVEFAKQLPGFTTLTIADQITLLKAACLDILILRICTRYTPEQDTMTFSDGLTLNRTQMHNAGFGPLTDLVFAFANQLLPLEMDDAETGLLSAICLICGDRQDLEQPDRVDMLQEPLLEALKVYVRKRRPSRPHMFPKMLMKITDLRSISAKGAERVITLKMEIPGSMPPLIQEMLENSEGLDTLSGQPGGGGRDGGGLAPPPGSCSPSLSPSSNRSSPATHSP
Excerpt: This example illustrates affinities of hydroxamic acid derivatives obtained in Examples 1 to 55 to retinoic acid receptor, in comparison with retinol and retinoic acid.
(§1) Receptor-expression plasmid, pECE-RARα and pECE-RARγ were engineered by the prior method (Mol. Cell. Biol. 1996, 16, 1138-1149). RARE-tk-Luc, i.e. RARE reporter was obtained by inserting RARE fragment from b-RARE-tk-CAT into pGL3 luciferase basic vector. CV-1 cells were obtained from ATCC (American Type Culture Collection).
CV-1 cells were seeded into 96-well microtiter plate at 5,000 cells per well and cultured in DMEM (Dulbecco's Modified Eagle's Media) supplemented with 2.5% fetal bovine serum. 24 Hours later, the cells were transfected with 10 ng of pECE-RARα, long of pECE-RARγ, 100 ng of reporter plasmid and 100 ng of β-galactosidase-expression vector, using LipofectaminPlus (GIBCO BRL, grand island, N.Y.). 24 Hours post-transfection, the cells were treated for 24 hours with hydroxamic acid derivatives of Examples 1˜55 or retinol at a final concentration of 10^−4M or with retinoic acid at a final concentration of 10^−5M, which is 10 times lower concentration than those of the former.

RARγ = target: T2, RARγ (Homo sapiens, UniProt P13631); experiment: RARE-luciferase reporter assay in transfected CV-1 cells (affinity to retinoic acid receptor), RARγ; type: cell-based; settings: treated 24 hours at final concentration 10^−4M, control group 5000
T2 construct: expressed in transfected cells; host or cells: CV-1 cells (ATCC)
T2 sequence (P13631 1-454): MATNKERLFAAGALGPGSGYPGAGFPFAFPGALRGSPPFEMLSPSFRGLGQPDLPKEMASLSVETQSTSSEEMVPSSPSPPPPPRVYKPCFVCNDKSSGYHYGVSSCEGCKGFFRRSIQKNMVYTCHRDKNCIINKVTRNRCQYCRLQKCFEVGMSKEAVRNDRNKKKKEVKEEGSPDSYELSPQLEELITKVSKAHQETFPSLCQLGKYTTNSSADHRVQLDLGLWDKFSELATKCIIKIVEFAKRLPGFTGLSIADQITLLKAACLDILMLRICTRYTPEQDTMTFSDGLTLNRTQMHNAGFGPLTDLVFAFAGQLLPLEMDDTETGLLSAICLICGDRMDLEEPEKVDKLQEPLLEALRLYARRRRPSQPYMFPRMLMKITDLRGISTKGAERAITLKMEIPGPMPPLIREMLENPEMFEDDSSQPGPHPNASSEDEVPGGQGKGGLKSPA
Procedure: as §1
CV-1 cells were seeded into 96-well microtiter plate at 5,000 cells per well and cultured in DMEM (Dulbecco's Modified Eagle's Media) supplemented with 2.5% fetal bovine serum. 24 Hours later, the cells were transfected with 10 ng of pECE-RARα, long of pECE-RARγ, 100 ng of reporter plasmid and 100 ng of β-galactosidase-expression vector, using LipofectaminPlus (GIBCO BRL, grand island, N.Y.).

procollagen type I = experiment: Effect on collagen biosynthesis (procollagen type I ELISA) in human fibroblasts; type: cell-based; settings: 10^−4M, 24 hours, serum-free medium, relative to control group = 100
Procedure: Human fibroblasts were seeded into 24-well plate at 1×10^5 cells per well and then cultured to 90% of growth.
For each supernatant, procollagen production was measured with procollagen type I ELISA kit.

collagenase = experiment: Inhibition of collagenase expression in human fibroblasts (ELISA kit); type: cell-based; settings: 10^−4M, 24 hours, serum-free medium, relative to control group = 100
Procedure: Human fibroblasts were seeded into 96-well microtiter plate at 5,000 cells per well and then cultured to 90% of growth in DMEM (Dulbecco's Modified Eagle's Media) supplemented with 2.5% fetal bovine serum. Then, the fibroblastes were cultured in serum-free DMEM for 24 hours and treated for 24 hours with 10^−4M of hydroxamic acid derivatives of Examples 1˜55, retinol or retinoic acid in serum-free medium, and then the culture fluid was collected.
(§2) For each culture fluid, collagenase production was measured with collagenase kit (commercialized by AmershamPharmacia Biotech). Firstly, the culture fluid was added to 96-well plate spread with primary collagenase antibody and then antigen-antibody reaction was performed in an incubator for 3 hours. Later, chromophore-conjugated secondary antibody was added to the 96-well plate and then reacted for 15 minutes. Then, color former was added thereto, to induce development at room temperature for 15 minutes. 1M of sulfuric acid was added to stop the reaction. […] The color density depends on the progress of the reaction. The absorbance of the yellow 96-well plate was measured at 405 nm using absorptiometer. Collagenase expression was calculated by the following equation 1. Herein, the absorbance of the culture fluid collected from the medium with no material treated was used as a control. Collagenase expression (%)=(Absorbance of test group with said material treated/Absorbance of control group with no material treated)×100 [Equation 1]
Collagenase expression was evaluated as a relative value, in consideration that the value of control group with no material treated is 100.

elastase = experiment: Inhibition of elastase expression in human fibroblasts (ELISA kit); type: cell-based; settings: 10^−4M, 24 hours, serum-free medium, relative to control group = 100
Procedure: as §2, with “elastase” for “collagenase”, “Elastase” for “Collagenase”, “2.” for “1.”, “2]” for “1]”
Elastase expression was evaluated as a relative value, in consideration that the value of control group with no material treated is 100.

white guinea pigs = experiment: Phototoxicity test (UVA irradiation); settings: for Evaluation (phototoxicity): 1%(w/v) solution, UVA 15 J/cm^2; for Phototoxic index: 50 μl of 1%(w/v) solution, UVA 320~380 nm 15 J/cm^2, observed 24, 48 and 72 hours
Procedure: Test was performed for twenty-five (25) of white guinea pigs whose backs were depilated and fixed. On both sides of the back, six(6) sites of 2 cm×2 cm, three(3) per side were sectioned. Right sites were compared as controls with no irradiation (UV non-irradiation sites) and left sites were irradiated (UV irradiation sites).
30 Minutes later, right sites were shielded with aluminum foil and UVA(320˜380 nm) was irradiated at a distance of about 10 cm therefrom using Waldmann to the final energy of 15 J/cm^2. After 24, 48 and 72 hours elapsed, skin response of guinea pig was observed. […] Evaluation was estimated for each elapsed time, i.e. 24, 48 and 72 hours and maximum scores were selected, to calculate irritation index by the following equation 3. Then, phototoxic index was calculated by the following equation 4. Irritation index=(ΣMaximum of erythema+ΣMaximum of edema)/Number of animals [Equation 3] Phototoxic index=(Irritation index of UV irradiation site)−(Irritation index of UV non-irradiation site) Equation 4]

rabbits = experiment: Primary skin irritation test on animals (Draize P.I.I.); settings: depilated back; for P.I.I. (Primary Irritation Index): 0.5 ml of 1% solution in 1,3-butylene glycol:ethanol 7:3, observed 24 or 72 hours later; for Evaluation (skin irritation): 1% solution, according to Draize's P.I.I.

SMILES	Luciferase activity RARα (RARα)	Luciferase activity RARγ (RARγ)	Collagen biosynthesis (%) (procollagen type I)	Collagenase expression (%) (collagenase)	Elastase expression (%) (elastase)	Evaluation (phototoxicity) (white guinea pigs)	Phototoxic index (white guinea pigs)	P.I.I. (Primary Irritation Index) (rabbits)	Evaluation (skin irritation) (rabbits)
O=C(NO)c1ccc(NC(=O)c2ccccc2)cc1 [Example 1, N-[4-(N-hydroxycarbamoyl)phenyl]benzamide]	10000	12000	105	78	79	No phototoxicity (lower value than 0.5, criterion value to be estimated as no phototoxicity)	0	0.375	No irritation
Cc1ccc(C(=O)Nc2ccc(C(=O)NO)cc2)cc1 [Example 2, N-[4-(N-hydroxycarbamoyl)phenyl][4-methylphenyl]carboxyamide]	12000	11200	118	68	78	No phototoxicity (lower value than 0.5, criterion value to be estimated as no phototoxicity)	0	0.345	No irritation
Cc1cccc(C(=O)Nc2ccc(C(=O)NO)cc2)c1 [Example 3, N-[4-(N-hydroxycarbamoyl)phenyl][3-methylphenyl]carboxyamide]	11600	10000	120	80	69	No phototoxicity (lower value than 0.5, criterion value to be estimated as no phototoxicity)	0	0.375	No irritation
CCc1ccc(C(=O)Nc2ccc(C(=O)NO)cc2)cc1 [Example 4, N-[4-(N-hydroxycarbamoyl)phenyl][4-ethylphenyl]carboxyamide]	12000	12300	119	78	70	No phototoxicity (lower value than 0.5, criterion value to be estimated as no phototoxicity)	0	0.350	No irritation
CCCc1ccc(C(=O)Nc2ccc(C(=O)NO)cc2)cc1 [Example 5, N-[4-(N-hydroxycarbamoyl)phenyl][4-propylphenyl]carboxyamide]	18000	11000	125	79	78	No phototoxicity (lower value than 0.5, criterion value to be estimated as no phototoxicity)	0	0.375	No irritation
CC(C)c1ccc(C(=O)Nc2ccc(C(=O)NO)cc2)cc1 [Example 6, N-[4-(N-hydroxycarbamoyl)phenyl][4-isopropylphenyl]carboxyamide]	14500	12300	124	85	79	No phototoxicity (lower value than 0.5, criterion value to be estimated as no phototoxicity)	0	0.315	No irritation
CCCCc1ccc(C(=O)Nc2ccc(C(=O)NO)cc2)cc1 [Example 7, N-[4-(N-hydroxycarbamoyl)phenyl][4-butylphenyl]carboxyamide]	12000	11700	109	84	77	No phototoxicity (lower value than 0.5, criterion value to be estimated as no phototoxicity)	0	0.312	No irritation
CN(O)C(=O)c1ccc(C(=O)NC23CC4CC(CC(C4)C2)C3)cc1 [Example 44, N-adamantyl [4-(N-hydroxy-N-methylcarbamoyl)phenyl]carboxyamide]	23100	–	–	–	–	No phototoxicity (lower value than 0.5, criterion value to be estimated as no phototoxicity)	–	–	–
CC1=C(/C=C/C(C)=C/C=C/C(C)=C/C(=O)O)C(C)(C)CCC1 [Retinoic acid, retinoic acid, reference compound]	–	–	125	60	68	–	–	1.830	Light irritation
CC1=C(/C=C/C(C)=C/C=C/C(C)=C/CO)C(C)(C)CCC1 [Retinol, retinol, reference compound]	2500	6000	120	85	88	–	–	–	–
